Read-outs that look alike come from different tables or passages of the source.
Legend:
Akt3 human enzyme = target: T1, Akt3 human enzyme (Homo sapiens, UniProt Q9Y243); experiment: Akt3 inhibition assay (IMAP FP); type: biochemical;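 also: kinase reaction run 60 min at room temperature after 30 µM ATP start, phosphorylated substrate captured on IMAP beads and read as fluorescence polarization (mP)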
T1 construct: purchased Upstate Chemicon 14-502

[1] = Compound plasma concentrations in unsensitized mice at 15 min post administration; type: in vivo; settings: mouse, 15 μmol/kg; mean compound plasma concentration in mice at 15 minutes post oral administration; read-out: Mouse Oral PK
ROCK1 = target: T2, ROCK1 (Homo sapiens, UniProt Q13464); experiment: Rho kinase inhibition assay (IMAP fluorescence polarization), ROCK1; type: biochemical;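 also: kinase reaction run 60 min at room temperature, then phosphorylated substrate captured on IMAP beads for 30 min, with fluorescence polarization read in mP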
T2 construct: purchased Upstate/Chemicon 14-601
Experimental: (§1) Following the pre-incubation, 10 μM ATP was added to initiate the reaction. After 60 minutes at room temperature, Molecular Devices IMAP™ binding solution was added to bind phosphorylated substrate. After 30 minutes of incubation in the presence of the IMAP™ beads, the fluorescence polarization was read and the ratio was reported as mP. IC50 values for compounds and EC50 values for ATP were calculated using the Prism software from Graphpad.

p70S6K human enzyme = target: T3, p70S6K human enzyme (Homo sapiens, UniProt P23443, T412E); experiment: p70S6K inhibition assay (IMAP FP); type: biochemical;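 also: kinase reaction run at room temperature, phosphorylated substrate captured on IMAP beads and read as fluorescence polarization in mP, IC50 then converted to Ki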
T3 construct: purchased Upstate Chemicon 14-486
Experimental: Inhibition of Akt3 and p70S6K activity was determined using the IMAP™ FP Progressive Binding Kit (Molecular Devices product number R8127). […] Following the pre-incubation, 30 μM ATP was added to initiate the reaction. After 60 minutes at RT, Molecular Devices IMAP™ binding solution was added to bind phosphorylated substrate. After 30 minutes of incubation in the presence of the IMAP™ beads the fluorescence polarization was read and the ratio was reported as mP. IC50 results were calculated using the Prism software from Graphpad. The Ki values were determined according to the following formula: Ki=IC50/(1+([ATP Challenge]/EC50 ATP)).

ROCK2 = target: T4, ROCK2 (Homo sapiens, UniProt O75116); experiment: Rho kinase inhibition assay (IMAP fluorescence polarization), ROCK2; type: biochemical;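 also: kinase reaction started with 10 µM ATP and run 60 min at room temperature, then phosphorylated substrate captured on IMAP beads for 30 min and fluorescence polarization read in mP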
T4 construct: purchased Upstate/Chemicon 14-451
Experimental: as §1

[2] = 30 μM ATP, Ki=IC50/(1+([ATP Challenge]/EC50 ATP)), read-out: Akt3 Ki, Avg
[3] = 30 μM ATP, Ki=IC50/(1+([ATP Challenge]/EC50 ATP)), read-out: p70S6K Ki, Avg
[4] = average Ki, read-out: p70S6K Ki
[5] = 10 μM ATP, read-out: ROCK2 Ki, Avg

T2 sequence (Q13464 17-535 limits assumed): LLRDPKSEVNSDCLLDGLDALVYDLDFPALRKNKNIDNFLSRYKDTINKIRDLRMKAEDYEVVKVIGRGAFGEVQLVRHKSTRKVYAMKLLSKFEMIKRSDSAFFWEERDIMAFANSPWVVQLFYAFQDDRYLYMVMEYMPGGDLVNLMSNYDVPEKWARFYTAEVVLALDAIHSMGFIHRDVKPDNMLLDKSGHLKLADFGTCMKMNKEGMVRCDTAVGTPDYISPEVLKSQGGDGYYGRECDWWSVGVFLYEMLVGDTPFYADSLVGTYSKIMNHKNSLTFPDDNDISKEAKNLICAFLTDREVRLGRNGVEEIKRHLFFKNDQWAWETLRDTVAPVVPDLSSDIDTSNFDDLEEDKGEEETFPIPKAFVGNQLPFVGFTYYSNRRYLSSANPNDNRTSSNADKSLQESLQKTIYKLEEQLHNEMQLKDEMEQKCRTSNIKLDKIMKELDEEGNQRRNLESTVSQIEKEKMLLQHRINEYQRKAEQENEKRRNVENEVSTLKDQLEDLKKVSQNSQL
T1 sequence (Q9Y243 whole entry): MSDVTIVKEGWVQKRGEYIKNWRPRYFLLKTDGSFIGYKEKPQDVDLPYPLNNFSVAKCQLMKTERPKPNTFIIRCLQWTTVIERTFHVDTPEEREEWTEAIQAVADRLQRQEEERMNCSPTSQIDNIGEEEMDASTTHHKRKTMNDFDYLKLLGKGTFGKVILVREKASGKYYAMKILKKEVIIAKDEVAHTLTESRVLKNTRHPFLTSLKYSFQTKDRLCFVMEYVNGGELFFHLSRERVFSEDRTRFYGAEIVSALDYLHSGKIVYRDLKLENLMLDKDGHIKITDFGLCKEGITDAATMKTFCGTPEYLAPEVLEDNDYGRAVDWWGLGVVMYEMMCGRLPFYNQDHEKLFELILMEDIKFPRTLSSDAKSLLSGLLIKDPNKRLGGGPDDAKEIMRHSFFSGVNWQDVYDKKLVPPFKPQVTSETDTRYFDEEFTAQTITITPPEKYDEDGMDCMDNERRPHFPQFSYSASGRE
T4 sequence (O75116 11-552 limits assumed): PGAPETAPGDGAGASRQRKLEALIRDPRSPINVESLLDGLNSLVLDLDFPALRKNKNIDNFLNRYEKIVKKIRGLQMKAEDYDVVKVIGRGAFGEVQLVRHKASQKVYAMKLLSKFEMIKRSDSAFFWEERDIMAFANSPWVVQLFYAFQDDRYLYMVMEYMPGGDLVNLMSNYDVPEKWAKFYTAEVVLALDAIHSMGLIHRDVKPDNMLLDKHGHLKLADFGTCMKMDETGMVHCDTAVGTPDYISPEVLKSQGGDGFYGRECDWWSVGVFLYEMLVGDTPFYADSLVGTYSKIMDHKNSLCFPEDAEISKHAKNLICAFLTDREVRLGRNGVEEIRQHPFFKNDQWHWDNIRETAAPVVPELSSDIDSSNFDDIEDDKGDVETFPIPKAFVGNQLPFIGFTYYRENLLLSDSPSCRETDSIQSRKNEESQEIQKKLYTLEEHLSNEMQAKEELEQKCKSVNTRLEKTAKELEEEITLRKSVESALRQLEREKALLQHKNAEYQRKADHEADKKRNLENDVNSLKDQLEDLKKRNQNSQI
T3 sequence (P23443 1-421 T412E limits assumed): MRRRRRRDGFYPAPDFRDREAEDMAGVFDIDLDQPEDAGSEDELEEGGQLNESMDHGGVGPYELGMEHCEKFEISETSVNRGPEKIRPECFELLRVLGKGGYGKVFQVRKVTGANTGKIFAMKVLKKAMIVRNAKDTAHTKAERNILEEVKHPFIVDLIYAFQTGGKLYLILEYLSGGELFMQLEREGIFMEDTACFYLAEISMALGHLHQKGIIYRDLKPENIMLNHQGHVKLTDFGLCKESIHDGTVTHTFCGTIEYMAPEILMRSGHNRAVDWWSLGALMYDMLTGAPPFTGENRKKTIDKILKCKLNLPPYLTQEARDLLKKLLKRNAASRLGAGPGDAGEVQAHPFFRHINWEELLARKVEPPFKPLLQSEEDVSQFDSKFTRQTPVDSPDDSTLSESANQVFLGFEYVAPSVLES

Row | Structure (SMILES) | Ki (Akt3 human enzyme; [2]) [nM] | Ki (Akt3 human enzyme; average Ki, read-out: Akt3 Ki) [nM] | concentration at 15 min [1] [nM] | Ki (ROCK1; Avg, 10 μM ATP) [nM] | Ki (ROCK1; average Ki) [nM] | Ki (p70S6K human enzyme; [3]) [nM] | Ki (p70S6K human enzyme; [4]) [nM] | Ki (ROCK2; [5]) [nM] | Ki (ROCK2; average Ki, read-out: ROCK2 Ki) [nM]
1 | c1cc2cc(CN3CCC[C@H](Nc4ccc5[nH]ncc5c4)C3)ccc2[nH]1 [Compound 1.149, (S)-N-(1-((1H-indol-5-yl)methyl)piperidin-3-yl)-1H-indazol-5-amine] | 7400 | 7400 | 1560 | 46.8 | 46.8 | 1890 | 1890 | 4.2 | 4.2
2 | c1cc2cc(CN3CCC[C@H](Nc4ccc5[nH]ncc5c4)C3)ccc2o1 [Compound 1.150, (S)-N-(1-(benzofuran-5-ylmethyl)piperidin-3-yl)-1H-indazol-5-amine] | 3180 | 3180 | 1390 | 33.2 | 33.2 | 1270 | 1270 | 3.2 | 3.2
3 | CSc1ccc(CN2CCC[C@H](Nc3ccc4[nH]ncc4c3)C2)cc1 [Compound 1.075, (S)-N-(1-(4-(methylthio)benzyl)piperidin-3-yl)-1H-indazol-5-amine] | 5320 | 5320 | 348 | 48.7 | 48.7 | 975 | 975 | 4.4 | 4.4
4 | c1cc(CN2CCC[C@H](Nc3ccc4[nH]ncc4c3)C2)cc(C2CC2)c1 [Compound 1.186, (S)-N-(1-(3-cyclopropylbenzyl)piperidin-3-yl)-1H-indazol-5-amine] | 10200 | 10200 | 2170 | 129 | 129 | 1610 | 1610 | 11.9 | 11.9
5 | c1ccc2c(CN3CCC[C@@H](Nc4ccc5[nH]ncc5c4)C3)c[nH]c2c1 [Compound 1.252, (R)-N-(1-((1H-indol-3-yl)methyl)piperidin-3-yl)-1H-indazol-5-amine] | 205 | 205 | 1260 | 30.5 | 30.5 | 171 | 171 | 4.5 | 4.5
6 | Brc1ccc(CN2CCC[C@@H](Nc3ccc4[nH]ncc4c3)C2)cc1 [Compound 1.134, (R)-N-(1-(4-bromobenzyl)piperidin-3-yl)-1H-indazol-5-amine] | 151 | 151 | 1550 | 22.4 | 22.4 | 520 | 520 | 4.4 | 4.4
7 | NS(=O)(=O)c1cccc(CN2CCC[C@@H](Nc3ccc4[nH]ncc4c3)C2)c1 [Compound 1.249, (R)-3-((3-(1H-indazol-5-ylamino)piperidin-1-yl)methyl)benzenesulfonamide] | 1600 | 1600 | 2150 | 91.7 | 91.7 | 937 | 937 | 8.6 | 8.6
8 | Clc1ccc(CN2CCC[C@H](Nc3ccc4[nH]ncc4c3)C2)cc1 [Compound 1.141, (S)-N-(1-(4-chlorobenzyl)piperidin-3-yl)-1H-indazol-5-amine] | 1260 | 1260 | 1640 | 28.5 | 28.5 | 387 | 387 | 3.8 | 3.8
9 | Fc1ccc(CN2CCC[C@H](Nc3ccc4[nH]ncc4c3)C2)cc1 [Compound 1.164, (S)-N-(1-(4-fluorobenzyl)piperidin-3-yl)-1H-indazol-5-amine] | 4310 | 4310 | 1500 | 42.4 | 42.4 | 1960 | 1960 | 6.1 | 6.1
10 | c1cc(N[C@@H]2CCN(Cc3ccc4occc4c3)C2)c2ccncc2c1 [Compound 2.055, (R)-N-(1-(benzofuran-5-ylmethyl)pyrrolidin-3-yl)isoquinolin-5-amine] | 978 | 978 | 656 | 16 | 16 | 312 | 312 | 6.4 | 6.4
11 | Cc1ccc(CN2CCC[C@@H](Nc3ccc4[nH]ncc4c3)C2)cc1 [Compound 1.133, (R)-N-(1-(4-methylbenzyl)piperidin-3-yl)-1H-indazol-5-amine] | 148 | 148 | 1100 | 25 | 25 | 532 | 532 | 4.3 | 4.3
12 | NC(=O)c1cccc(CN2CCC[C@H](Nc3ccc4[nH]ncc4c3)C2)c1 [Compound 1.219, (8)-3-((3-(1H-indazol-5-ylamino)piperidin-1-yl)methyl)benzamide] | 38300 | 38300 | 1680 | 344 | 344 | 4970 | 4970 | 15.4 | 15.4
13 | c1cc2c(cc1CN1CCC[C@H](Nc3ccc4[nH]ncc4c3)C1)OCCO2 [Compound 1.166, (S)-N-(1-((2,3-dihydrobenzo[b][1,4]dioxin-6-yl)methyl)piperidin-3-yl)-1H-indazol-5-amine] | 18100 | 18100 | 342 | 95.2 | 95.2 | 5160 | 5160 | 8 | 8
14 | Cc1ccc(CN2CCC[C@H](Nc3ccc4[nH]ncc4c3)C2)c(C)c1 [Compound 1.155, (S)-N-(1-(2,4-dimethylbenzyl)piperidin-3-yl)-1Hindazol-5-amine] | 5680 | 5680 | 32 | 45.4 | 45.4 | 1750 | 1750 | 7 | 7
15 | C#Cc1cccc(CN2CCC[C@H](Nc3ccc4[nH]ncc4c3)C2)c1 [Compound 1.153, (S)-N-(1-(3-ethynylbenzyl)piperidin-3-yl)-1H-indazol-5-amine] | 9950 | 9950 | 522 | 62.8 | 62.8 | 2380 | 2380 | 4.2 | 4.2
16 | O=C(COc1cccc(CN2CCC[C@@H](Nc3ccc4[nH]ncc4c3)C2)c1)Nc1cccnc1 [Compound 1.126, (R)-2-(3-((3-(1H-indazol-5-ylamino)piperidin-1-yl)methyl)phenoxy)-N-(pyridin-3-yl)acetamide] |  |  | 0 | 76.2 | 76.2 |  |  | 17.2 | 17.2
17 | c1cc(N[C@@H]2CCN(Cc3ccc4[nH]ccc4c3)C2)c2ccncc2c1 [Compound 2.065, (R)-N-(1-((1H-indol-5-yl)methyl)pyrrolidin-3-yl)isoquinolin-5-amine] |  |  | 236 | 4.1 | 4.1 |  |  | 1.8 | 1.8
18 | CC(C)(C)OC(=O)NCc1cccc(CN2CCC[C@H](Nc3ccc4[nH]ncc4c3)C2)c1 [Compound 1.176, (S)-tert-butyl 3-((3-(1H-indazol-5-ylamino)piperidin-1-yl)methyl)benzylcarbamate] | 20900 | 20900 | 89 | 314 | 314 | 8760 | 8760 |  | 
